Molecular target: T1, Dopamine D2 receptor (hD2L) (Homo sapiens, UniProt P14416)
T1 construct: expressed in transfected cells; host or cells: CHO cells (CHO-hD2L)
Assay: Dopamine D2 Receptor Binding Assay ([3H]spiperone, CHO-hD2L membranes)
Details: [3H]spiperone 0.4 nM, membrane preparation from CHO-hD2L cells
Excerpt: The ability of the novel compounds of this invention to bind to the dopamine D2 receptor can be determined using conventional radioligand receptor binding assays. All receptors can be heterologously expressed in cell lines and binding assays can be conducted in membrane preparations from the cell lines using procedures outlined below. IC50 concentrations can be determined by nonlinear regression of concentration-dependent reduction in specific binding. The Cheng-Prussoff equation can be used to convert the IC50 to Ki concentrations.
[^3H]Spiperone binding to a membrane preparation from CHO-hD2L cells was carried out in 250 μl of 50 mM Tris-HCl buffer containing 100 mM NaCl, 1 mM MgCl2 and 1% DMSO at pH 7.4. Duplicate samples containing (in order of addition) the test compounds, 0.4 nM [^3H]spiperone and approximately 12 μg protein were incubated for 120 minutes at room temperature. Bound radioligand was separated by rapid filtration under reduced pressure through Whatman GF/B glass fiber filters previously treated with 0.3% polyethyleneimine. Radioactivity retained on the filter is determined by liquid scintillation spectrophotometry.

T1 sequence (P14416 whole entry): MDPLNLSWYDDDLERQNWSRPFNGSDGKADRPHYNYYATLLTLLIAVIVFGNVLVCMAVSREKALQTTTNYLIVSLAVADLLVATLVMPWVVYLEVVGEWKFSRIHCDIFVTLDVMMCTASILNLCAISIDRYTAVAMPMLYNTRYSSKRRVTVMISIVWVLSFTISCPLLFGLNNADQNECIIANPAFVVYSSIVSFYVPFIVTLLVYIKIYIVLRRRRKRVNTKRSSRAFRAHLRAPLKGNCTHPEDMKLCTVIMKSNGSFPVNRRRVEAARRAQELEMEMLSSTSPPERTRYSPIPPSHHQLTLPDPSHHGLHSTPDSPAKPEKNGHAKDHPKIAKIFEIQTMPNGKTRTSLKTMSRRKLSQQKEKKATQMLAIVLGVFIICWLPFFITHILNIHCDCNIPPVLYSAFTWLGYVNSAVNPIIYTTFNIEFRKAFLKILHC

Row | SMILES | Ki [nM]
1 | O=C1CCCc2ccc(OCCCCN3CCN(c4cccc5ccccc45)CC3)nc2N1 [Example 2, 2-[4-(4-Naphthalen-1-yl-piperazin-1-yl)-butoxy]-5,6,7,9-tetrahydro-pyrido[2,3-b]azepin-8-one] | 3.87
2 | O=C1CCCc2ccc(OCCCCN3CCN(c4cccc(Cl)c4Cl)CC3)nc2N1 [Example 3, 2-{4-[4-(2,3-dichloro-phenyl)-piperaxin-1-yl]-butoxy}-5,6,7,9-tetrahydro-pyrido[2,3-b]azepin-8-one] | 5.48
3 | O=C1CCCc2ccc(OCCCCN3CCN(c4cccc5c4OCCC5)CC3)nc2N1 [Example 4, 2-[4-(4-Chroman-8-yl-piperazin-1-yl)-butoxy]-5,6,7,9-tetrahydro-pyrido[2,3-b]azepin-8-one] | 2
4 | O=C1CCCc2ccc(OCCCCN3CCN(c4cccc5c4CCCC5)CC3)nc2N1 [Example 5, 2-{4-[4-(5,6,7,8-Tetrahydro-naphthalen-1-yl)-piperazin-1-yl]-butoxy}-5,6,7,9-tetrahydro-pyrido[2,3-b]azepin-8-one] | 2.45
5 | O=C1CCCc2ccc(OCCCCN3CCN(c4cccc5c4CCC5)CC3)nc2N1 [Example 6, 2-[4-(4-Indan-4-yl-piperazin-1-yl)-butoxy]-5,6,7,9-tetrahydro-pyrido[2,3-b]azepin-8-one] | 1
6 | O=C1CCCc2ccc(OCCCCN3CCN(c4cccc5c4OCC5)CC3)nc2N1 [Example 7, 2-{4-[4-(2,3-Dihydro-benzofuran-7-yl)-piperazin-1-yl]-butoxy}-5,6,7,9-tetrahydro-pyrido[2,3-b]azepin-8-one] | 3.46
7 | O=C1CCCc2ccc(OCCCCN3CCN(c4cccc5ccc(F)cc45)CC3)nc2N1 [Example 8, 2-{4-[4-(7-Fluoro-naphthalen-1-yl)-piperazin-1-yl]-butoxy}-5,6,7,9-tetrahydro-pyrido[2,3-b]azepin-8-one] | 1
8 | O=C1CCCc2ccc(OCCCCN3CCN(c4cccc5c4OCCCO5)CC3)nc2N1 [Example 9, 2-{4-[4-(3,4-Dihydro-2H-benzo[b][1,4]dioxepin-6-yl)-piperazin-1-yl]-butoxy}-5,6,7,9-tetrahydro-pyrido[2,3-b]azepin-8-one] | 2
9 | N#Cc1ccc2cccc(N3CCN(CCCCOc4ccc5c(n4)NC(=O)CCC5)CC3)c2c1 [Example 10, 8-{4-[4-(8-Oxo-6,7,8,9-tetrahydro-5H-pyrido[2,3-b]azepin-2-yloxy)-butyl]-piperazin-1-yl}-naphthalene-2-carbonitrile] | 2.79
10 | CN1C(=O)CCc2cccc(N3CCN(CCCCOc4ccc5c(n4)NC(=O)CCC5)CC3)c21 [Example 11, 2-{4-[4-(1-Methyl-2-oxo-1,2,3,4-tetrahydro-quinolin-8-yl)-piperazin-1-yl]-butoxy}-5,6,7,9-tetrahydro-pyrido[2,3-b]azepin-8-one] | 18.9
11 | O=C1NCCc2ccc(OCCCCN3CCN(c4cccc(Cl)c4Cl)CC3)nc2N1 [Example 14, 2-{4-[4-(2,3-Dichloro-phenyl)-piperazin-1-yl]-butoxy}-5,6,7,9-tetrahydro-1,7,9-triaza-benzocyclohepten-8-one] | 1
12 | O=C1NCCc2ccc(OCCCCN3CCN(c4cccc5ccccc45)CC3)nc2N1 [Example 15, 2-[4-(4-Naphthalen-1-yl-piperazin-1-yl)-butoxy]-5,6,7,9-tetrahydro-1,7,9-triaza-benzocyclohepten-8-one] | 1
13 | O=C1NCCc2ccc(OCCCCN3CCN(c4cccc5c4CCCC5)CC3)nc2N1 [Example 16, 2-{4-[4-(5,6,7,8-Tetrahydro-naphthalen-1-yl)-piperazin-1-yl]-butoxy}-5,6,7,9-tetrahydro-1,7,9-triaza-benzocyclohepten-8-one] | 1.41
14 | O=C1NCCc2ccc(OCCCCN3CCN(c4cccc5c4OCCC5)CC3)nc2N1 [Example 17, 2-[4-(4-Chroman-8-yl-piperazin-1-yl)-butoxy]-5,6,7,9-tetrahydro-1,7,9-triaza-benzocyclohepten-8-one] | 1
15 | COc1ccc2cccc(N3CCN(CCCCOc4ccc5c(n4)NC(=O)NCC5)CC3)c2c1 [Example 21, 2-{4-[4-(7-Methoxy-naphthalen-1-yl)-piperazin-1-yl]-butoxy}-5,6,7,9-tetrahydro-1,7,9-triaza-benzocyclohepten-8-one] | 0.4
16 | N#Cc1ccc2cccc(N3CCN(CCCCOc4ccc5c(n4)NC(=O)NCC5)CC3)c2c1 [Example 22, 8-{4-[4-(8-Oxo-6,7,8,9-tetrahydro-5H-1,7,9-triaza-benzocyclohepten-2-yloxy)-butyl]-piperazin-1-yl}-naphthalene-2-carbonitrile] | 0.4
17 | CN1C(=O)CCc2cccc(N3CCN(CCCCOc4ccc5c(n4)NC(=O)NCC5)CC3)c21 [Example 23, 2-{4-[4-(1-Methyl-2-oxo-1,2,3,4-tetrahydro-quinolin-8-yl)-piperazin-1-yl]-butoxy}-5,6,7,9-tetrahydro-1,7,9-triaza-benzocyclohepten-8-one] | 3
18 | Cc1c(F)ccc(N2CCN(CCCCOc3ccc4c(c3)NC(=O)NCC4)CC2)c1Cl [Example 30, 8-{4-[4-(2-Chloro-4-fluoro-3-methyl-phenyl)-piperazin-1-yl]-butoxy}-1,3,4,5-tetrahydro-benzo[d][1,3]diazepin-2-one] | 2
19 | Cc1cc(N2CCN(CCCCOc3ccc4c(c3)NC(=O)NCC4)CC2)c(Cl)cc1F [Example 31, 8-{4-[4-(2-Chloro-4-fluoro-5-methyl-phenyl)-piperazin-1-yl]-butoxy}-1,3,4,5-tetrahydro-benzo[d][1,3]diazepin-2-one] | 6
20 | O=C1NCCc2ccc(OCCCCN3CCN(c4cccc5ccccc45)CC3)cc2N1 [Example 32, 8-[4-(4-Naphthalen-1-yl-piperazin-1-yl)-butoxy]-1,3,4,5-tetrahydro-benzo[d][1,3]diazepin-2-one] | 3.45
21 | CCc1cccc(N2CCN(CCCCOc3ccc4c(c3)NC(=O)NCC4)CC2)n1 [Example 33] | 2.83
22 | CC(C)c1cccc(N2CCN(CCCCOc3ccc4c(c3)NC(=O)NCC4)CC2)n1 [Example 34, 8-{4-[4-(6-Isopropyl-pyridin-2-yl)-piperazin-1-yl]-butoxy}-1,3,4,5-tetrahydro-benzo[d][1,3]diazepin-2-one] | 2.68
23 | O=C1NCCc2ccc(OCCCCN3CCN(c4ccc(F)cc4Cl)CC3)cc2N1 [Example 35, 8-{4-[4-(2-Chloro-4-fluoro-phenyl)-piperazin-1-yl]-butoxy}-1,3,4,5-tetrahydro-benzo[d][1,3]diazepin-2-one] | 3
24 | O=C1NCCc2ccc(OCCCCN3CCN(c4ccc(F)c(Cl)c4Cl)CC3)cc2N1 [Example 36, 8-{4-[4-(2,3-Dichloro-4-fluoro-phenyl)-piperazin-1-yl]-butoxy}-1,3,4,5-tetrahydro-benzo[d][1,3]diazepin-2-one] | 3
25 | O=C1NCCc2ccc(OCCCCN3CCN(c4cccc5ccc(F)cc45)CC3)cc2N1 [Example 38, 8-{4-[4-(7-Fluoro-naphthalen-1-yl)-piperazin-1-yl]-butoxy}-1,3,4,5-tetrahydro-benzo[d][1,3]diazepin-2-one] | 2.22
26 | O=C1NCCc2ccc(OCCCCN3CCN(c4cccc5nsnc45)CC3)cc2N1 [Example 39, 8-{4-[4-(2,1,3-benzothiadiazol-4-yl)piperazin-1-yl]butoxy}-1,3,4,5-tetrahydro-2H-1,3-benzodiazepin-2-one] | 2.6
